# Results reported in US8916599B2, “1H-benz imidazole-5-carboxamides as anti-inflammatory agents” (Orexo AB, priority 2008, dated 2014).
# Target: T1, recombinant human mPGES-1 (Homo sapiens, UniProt O14684)
# T1 construct: made in house; host or cells: Rosetta E. coli (microsomal/membrane fraction)
# T1 sequence (O14684 1-152): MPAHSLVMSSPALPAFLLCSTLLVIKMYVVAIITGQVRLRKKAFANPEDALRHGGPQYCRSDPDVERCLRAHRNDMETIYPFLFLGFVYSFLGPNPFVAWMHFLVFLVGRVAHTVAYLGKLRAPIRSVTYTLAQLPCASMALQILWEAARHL
# Experiment: mPGES-1 inhibition test (microsomes, PGH2 substrate, HTRF detection of PGE2)
# Format: biochemical
# Conditions: inhibition of mPGES-1 at 10 μM
# Method in brief: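 First, inhibitor is incubated with microsomal enzyme from Rosetta E. coli in KPi pH 7.4 containing 2.5 mM GSH for 25 minutes at room temperature. Next, PGH2 is added and stopped after one minute with FeCl2 stop solution. Finally, diluted samples undergo HTRF PGE2 quantification.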
row,SMILES,inhibition at 10 µM [%]
1,"CCCC[C@H](C)NC(=O)c1cc2nc(Nc3c(Cl)cccc3Cl)[nH]c2cc1F [Example 443, (S)-2-(2,6-Dichlorophenylamino)-6-fluoro-N-(hexan-2-yl)-1H-benzimidazole-5-carboxamide]",100
2,"O=C(NC1CCC2(CC1)CC2)c1cc2nc(Nc3c(F)cccc3Cl)[nH]c2cc1F [Example 399, 2-(2-Chloro-6-fluorophenylamino)-6-fluoro-N-(spiro[2.5]octan-6-yl)-1H-benzimidazole-5-carboxamide]",99
3,"O=C(Nc1nc2c(s1)CCC2)c1ccc2[nH]c(Nc3c(Cl)cccc3Cl)nc2c1 [Example 78, 2-(2,6-Dichloro-phenylamino)-1H-benzimidazole-5-carboxylic acid (5,6-dihydro-4H-cyclopentathiazol-2-yl)-amide]",90
4,"Cc1cccc(Cl)c1Nc1nc2cc(C(=O)Nc3ccc(Br)cc3)ccc2n1C [Example 382, N-(4-Bromophenyl)-2-(2-chloro-6-methylphenylamino)-1-methyl-1H-benzimidazole-5-carboxamide]",100
5,"CC(C)Oc1cc2[nH]c(Nc3c(Cl)ccc(Cl)c3F)nc2cc1C(=O)NC1CCC(C)(C)CC1 [Example 618, 2-(3,6-Dichloro-2-fluoro-phenylamino)-6-isopropoxy-N-(4,4-dimethyl-cyclohex-1-yl)-1H-benzimidazole-5-carboxamide]",91
6,"CN(C)CCCn1c(Nc2c(Cl)cccc2Cl)nc2cc(C(=O)Nc3cc(Cl)ccn3)ccc21 [Example 276, 2-(2,6-Dichloro-phenylamino)-1-(3-dimethylamino-propyl)-1H-benzimidazole-5-carboxylic acid (4-chloro-pyridin-2-yl)-amide]",100
7,"CCc1cccc(CC)c1Nc1nc2cc(C(=O)Nc3ccc(Br)cc3)ccc2[nH]1 [Example 114, 2-(2,6-Diethyl-phenylamino)-1H-benzimidazole-5-carboxylic acid (4-bromo-phenyl)-amide]",80
8,"CN(C)c1cccc(F)c1Nc1nc2cc(C(=O)Nc3ccc(Br)cc3)ccc2n1C [Example 551, N-(4-Bromophenyl)-2-(2-dimethylamino-6-fluorophenylamino)-1-methyl-1H-benzimidazole-5-carboxamide]",94
9,"O=C(Nc1ccc(Cl)c(Cl)c1)c1ccc2[nH]c(Nc3c(Cl)cccc3Cl)nc2c1 [Example 111, 2-(2,6-Dichloro-phenylamino)-1H-benzimidazole-5-carboxylic acid (3,4-dichloro-phenyl)-amide]",100
10,"O=C(NC1CCCCC1)c1cc(Br)c2[nH]c(Nc3c(Cl)cccc3Cl)nc2c1 [Example 514, 7-Bromo-N-cyclohexyl-2-(2,6-dichlorophenylamino)-1H-benzimidazole-5-carboxamide]",95
11,"O=C(Nc1cccc(Cl)c1)c1cc2nc(Nc3c(Cl)ccc(Cl)c3F)[nH]c2cc1F [Example 598, 2-(3,6-Dichloro-2-fluoro-phenylamino)-N-(3-chlorphenyl)-6-fluoro-1H-benzimidazole-5-carboxamide]",100
12,"Cc1cccnc1NC(=O)c1ccc2c(c1)nc(Nc1c(Cl)cccc1Cl)n2C [Example 341, 2-(2,6-Dichloro-phenylamino)-1-methyl-1-H-benzimidazole-5-carboxylic acid (3-methyl-pyridin-2-yl)-amide]",92
13,"Cc1ccc(Cl)c(Nc2nc3cc(C(=O)Nc4ccc(Br)cc4)ccc3[nH]2)c1Cl [Example 322, 2-(2,6-Dichloro-3-methyl-phenylamino)-1H-benzimidazole-5-carboxylic acid (4-bromo-phenyl)-amide]",100
14,COc1cc2[nH]c(Nc3c(Cl)cccc3Cl)nc2cc1C(=O)NCc1ncccc1Cl [Example 630],100
15,"COc1cc2[nH]c(Nc3c(Cl)ccc(Cl)c3F)nc2cc1C(=O)N[C@H]1CC[C@H](C(F)(F)F)CC1 [Example 617, 2-(3,6-Dichloro-2-fluoro-phenylamino)-6-methoxy-N-(4-trans-trifluoromethyl-cyclohex-1-yl)-1H-benzimidazole-5-carboxamide]",100
16,"O=C(Nc1ccc(Br)cc1)c1ccc2[nH]c(Nc3ccc(Cl)cc3Cl)nc2c1 [Example 109, 2-(2,4-Dichloro-phenylamino)-1H-benzimidazole-5-carboxylic acid (4-bromo-phenyl)-amide]",100
17,"Cc1cc2[nH]c(Nc3c(Cl)cccc3Cl)nc2cc1C(=O)Nc1ccc(Cl)c(F)c1 [Example 145, 2-(2,6-Dichloro-phenylamino)-6-methyl-1H-benzimidazole-5-carboxylic acid (4-chloro-3-fluorophenyl)-amide]",100
18,"Cc1ccc(Nc2nc3cc(C(=O)Nc4ccc(Br)cc4)ccc3n2C)c(Cl)c1 [Example 512, N-(4-Bromophenyl)-2-(2-chloro-4-methylphenylamino)-1-methyl-1H-benzimidazole-5-carboxamide]",99
19,"Cc1ccc(NC(=O)c2ccc3[nH]c(Nc4c(Cl)cccc4Cl)nc3c2)cc1Cl [Example 286, 2-(2,6-Dichloro-phenylamino)-1H-benzimidazole-5-carboxylic acid (3-chloro-4-methyl-phenyl)-amide]",100
20,"COc1cc2[nH]c(Nc3c(Cl)cccc3Cl)nc2cc1C(=O)Nc1ccc(C(F)(F)F)cn1 [Example 633, 2-(2,6-Dichlorophenylamino)-N-(5-trifluoromethyl-pyridin-2-yl)-6-methoxy-1H-benzimidazole-5-carboxamide]",99
21,"COCCn1c(Nc2c(Cl)cccc2Cl)nc2cc(C(=O)Nc3cc(Cl)ccn3)ccc21 [Example 272, 2-(2,6-Dichloro-phenylamino)-1-(2-methoxy-ethyl)-1H-benzimidazole-5-carboxylic acid (4-chloro-pyridin-2-yl)-amide]",90
22,"O=C(Nc1ccc(Br)cc1)c1cc2nc(Nc3c(F)ccc(F)c3Cl)[nH]c2cc1OCC(F)(F)F [Example 595, 2-(2-Chloro-3,6-difluoro-phenylamino)-N-(4-bromophenyl)-6-(2,2,2-trifluorethoxy)-1H-benzimidazole-5-carboxamide]",100

# Continued, values first:
row,inhibition at 10 µM [%],SMILES
1,95,"Cn1c(Nc2c(Cl)cccc2Cl)nc2cc(C(=O)NC3CCC4(CC3)CC4)ccc21 [Example 483, 2-(2,6-Dichlorophenylamino)-1-methyl-N-(spiro[2.5]octan-6-yl)-1H-benzimidazole-5-carboxamide]"
2,100,"O=C(N[C@H]1CC[C@H](C(F)(F)F)CC1)c1cc2nc(Nc3c(Cl)cccc3Cl)[nH]c2cc1F [Example 155, 2-(2,6-Dichloro-phenylamino)-6-fluoro-1H-benzimidazole-5-carboxylic acid (trans-4-trifluoromethyl-cyclohexyl)-amide]"
3,97,"CCOc1cc2c(cc1C(=O)NC1CCC(C)(C)CC1)nc(Nc1c(Cl)ccc(Cl)c1F)n2C [Example 607, 2-(3,6-Dichloro-2-fluoro-phenylamino)-6-ethoxy-N-(4,4-dimethyl-cyclohex-1-yl)-1-methyl-1H-benzimidazole-5-carboxamide]"
4,100,"Cn1c(Nc2c(F)cccc2Cl)nc2cc(C(=O)N[C@H]3CC[C@H](C(F)F)CC3)c(F)cc21 [Example 476, 2-(2-Chloro-6-fluorophenylamino)-N-((1r,4r)-4-(difluoromethyl)cyclohexyl)-6-fluoro-1-methyl-1H-benzimidazole-5-carboxamide]"
5,100,"Cn1c(Nc2c(Cl)cccc2Cl)nc2cc(C(=O)N[C@H]3CC[C@H](C(F)F)CC3)c(F)cc21 [Example 475, 2-(2,6-Dichlorophenylamino)-N-((1r,4r)-4-(difluoromethyl)cyclohexyl)-6-fluoro-1-methyl-1H-benzimidazole-5-carboxamide]"
6,97,"Cn1c(Nc2c(Cl)cccc2Cl)nc2cc(C(=O)NCC3CCC3)c(F)cc21 [Example 516, N-(Cyclobutylmethyl)-2-(2,6-dichlorophenylamino)-6-fluoro-1-methyl-1H-benzimidazole-5-carboxamide]"
7,100,"C[C@@H]1CCC(NC(=O)c2cc3nc(Nc4c(Cl)cccc4Cl)n(C)c3cc2F)C1 (stereo partly drawn) [Example 175, 2-(2,6-Dichloro-phenylamino)-6-fluoro-1-methyl-1H-benzimidazole-5-carboxylic acid ((3R)-3-methyl-cyclopentyl)-amide]"
8,97,"CCC1CCC(NC(=O)c2cc3nc(Nc4c(Cl)cccc4Cl)n(C)c3cc2F)CC1 (stereo not shown) [Example 437, 2-(2,6-Dichlorophenylamino)-N-(4-ethylcyclohexyl)-6-fluoro-1-methyl-1H-benzimidazole-5-carboxamide]"
9,100,"CC(C)(C)[C@H]1CC[C@H](NC(=O)c2cc3nc(Nc4c(F)cccc4Cl)[nH]c3cc2F)CC1 [Example 357, N-((1r,4r)-4-tert.-Butylcyclohexyl)-2-(2-chloro-6-fluorophenylamino)-6-fluoro-1H-benzimidazole-5-carboxamide]"
10,100,"CC(C)CCNC(=O)c1cc2nc(Nc3c(Cl)cccc3Cl)n(C)c2cc1F [Example 428, 2-(2,6-Dichlorophenylamino)-6-fluoro-N-isopentyl-1-methyl-1H-benzimidazole-5-carboxamide]"
11,96,"Cn1c(Nc2c(Cl)cccc2Cl)nc2cc(C(=O)NCCCC3CC3)c(F)cc21 [Example 398, N-(3-Cyclopropylpropyl)-2-(2,6-dichlorophenylamino)-6-fluoro-1-methyl-1H-benzimidazole-5-carboxamide]"
12,100,"Cn1c(Nc2c(Cl)cc(F)cc2Cl)nc2cc(C(=O)NC3CCC(C)(C)CC3)ccc21 [Example 420, 2-(2,6-Dichloro-4-fluorophenylamino)-N-(4,4-dimethylcyclohexyl)-1-methyl-1H-benzimidazole-5-carboxamide]"
